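Grown in 96-well plates, cells were treated for 48 hours with each compound at five concentrations. Insufficient inhibition: endpoint recorded as highest concentration tested. Abbreviation: GI50, concentration required for 50% inhibition of growth.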 Active and inactive are the calls of the source. No stated cut-off is given here; in the data, active = GI50 up to about 1.1 µM and inactive = higher.

Common to all, as to test: NCI tumour cell line growth inhibition, 48 h
Test [1] deals with OVCAR-3.
Test [2] deals with BT-549.
Test [3] deals with RXF 393.
Test [4] deals with Malme-3M.
Test [5] concerns SK-MEL-5.
Test [6] has as its system A549.
Test [7] has as its system CCRF-CEM.
The subject of test [8] is K562.
For test [9], the system named is SN12C.
Test [10] deals with UO-31.
Test [11] deals with MDA-MB-231.
Test [12] has as its system OVCAR-4.
Test [13] deals with SK-MEL-2.
For test [14], the system named is MCF7.
Test [15] concerns HL-60.
Test [16] has as its system NCI-H226.
For test [17], the system named is NCI-H23.
The subject of test [18] is 786-0.
Test [19] concerns NCI/ADR-RES.
In test [20] the test system is A498.

With `Cc1cc(C)nc(NS(=O)(=O)c2ccc(NC(=O)c3ccc4nc5ccccc5c(Nc5ccc(S(=O)(=O)N=C(N)N)cc5)c4c3)cc2)n1`, the GI50 in [1], in test [2], in test [3], in test [4], in test [5] and in test [6] was > 100 µM (inactive) in each case. The GI50 in [7] was 68.5 µM (inactive); in test [8] it was 46.6 µM (inactive); in test [9] it was > 100 µM (inactive); in [10] it was > 100 µM (inactive); in test [11], > 100 µM (inactive); in test [12] it was > 100 µM (inactive). Besides, the GI50 in test [13], in [14], in test [15], in test [16], in test [17] and in test [18] was > 100 µM (inactive) throughout. For the same molecule, the GI50 in test [19] was > 100 µM (inactive).
On to `CC(=O)O[C@H]1CC[C@H]2[C@@H]3CCc4cc(O)c(I)cc4[C@H]3CC[C@]12C`, for which the GI50 was 16.6 µM (inactive) in test [1]; 14.8 µM (inactive) in test [2]; 16.9 µM (inactive) in test [4]; 3.83 µM (inactive) in test [5]; 15.3 µM (inactive) in [6]; > 10 µM (inactive) in test [7]. Moreover, the GI50 in [8] was 10.6 µM (inactive); in test [10] it was 14 µM (inactive); in test [11], 3.64 µM (inactive); in test [12], 13.6 µM (inactive); in test [13] it was 19 µM (inactive); in [14], 17 µM (inactive). Also, the GI50 was 5.21 µM (inactive) in [15]; 14.9 µM (inactive) in test [16]; 12.5 µM (inactive) in [17]; 14.1 µM (inactive) in [18]; 17.6 µM (inactive) in [19].
Turning to `CCOC(=O)C1=C(C)N(c2ccc(Cl)cc2)C2(O)C=CC(O)=C3C(=O)c4ccccc4C(=O)C312` (stereo unspecified), the GI50 in test [1] is 1.91 µM (inactive); in test [2] it was 10.6 µM (inactive); in [4], 0.483 µM (active); in test [5], 7.96 µM (inactive); in [6], 4.56 µM (inactive); in test [7] it was 2.34 µM (inactive). The GI50 in test [8] is 4.23 µM (inactive); in test [9] it was 4.16 µM (inactive); in test [10] it was 3.92 µM (inactive); in test [11] it was 10.9 µM (inactive); in test [12], 3.97 µM (inactive); in [13] it was 4.32 µM (inactive). The GI50 in test [14] was 2.72 µM (inactive); in test [15] it was 2.37 µM (inactive); in test [17], 10.1 µM (inactive); in test [20], 15.2 µM (inactive); in test [18], 2.12 µM (inactive); in test [19] it was 2.49 µM (inactive).
In the case of `Cc1ccc(-n2nnc(C#N)c2O)cc1`, the GI50 in [1], in test [2], in [3], in [4], in [5] and in [6] was > 100 µM (inactive) in each case. For the same molecule, the GI50 in test [7], in test [8], in test [9], in test [10], in [11] and in [12] was > 100 µM (inactive) throughout. The GI50 in test [13], in test [14], in test [15], in test [16], in test [17] and in [18] was > 100 µM (inactive) throughout. In [19], the GI50 was > 100 µM (inactive).
Take `CC1=C(Cl)C[C@@H](/C(C)=C\Cl)O[C@@]1(O)C(Br)Br`: the GI50 in test [1] is 17.5 µM (inactive); in test [2], 28.4 µM (inactive); in [3], 19.2 µM (inactive); in test [4], 24.5 µM (inactive); in [5], 24.9 µM (inactive); in test [6], 22 µM (inactive). In addition, the GI50 is 6.27 µM (inactive) in test [7]; 17.3 µM (inactive) in test [8]; 19.5 µM (inactive) in [9]; 25.3 µM (inactive) in test [10]; 19.5 µM (inactive) in [11]; 43 µM (inactive) in [12]. Further, the GI50 is 28.4 µM (inactive) in test [13]; 18.2 µM (inactive) in test [14]; 6.92 µM (inactive) in [15]; 41.9 µM (inactive) in [17]; 31.1 µM (inactive) in test [20]; 33.7 µM (inactive) in test [18].
`COc1cc(NS(C)(=O)=O)ccc1N1Cc2c[nH]c3ccc4nccc1c4c23`: the GI50 was 33.7 µM (inactive) in test [1]; 42.9 µM (inactive) in test [2]; 23.4 µM (inactive) in test [5]; > 100 µM (inactive) in [6]; 25.5 µM (inactive) in test [7]; 22.5 µM (inactive) in test [8]. For the same molecule, the GI50 in test [9] was 20.2 µM (inactive); in test [10] it was > 100 µM (inactive); in test [11], 24.9 µM (inactive); in test [12], 61.2 µM (inactive); in [13], 21.6 µM (inactive); in [14], 36.6 µM (inactive). The GI50 was 23.6 µM (inactive) in test [15]; 29 µM (inactive) in test [16]; 39.1 µM (inactive) in test [17]; 38.5 µM (inactive) in [20]; 30.8 µM (inactive) in test [18]; > 100 µM (inactive) in [19].
As to `CNC(=O)N(CCC#N)CCCN(C(=O)NC)c1ccccc1`, the GI50 is > 100 µM (inactive) in test [1]; > 100 µM (inactive) in test [2]; > 100 µM (inactive) in test [3]; 51.4 µM (inactive) in test [4]; > 100 µM (inactive) in [5]; > 100 µM (inactive) in test [6]. The GI50 in test [7], in [8], in test [9], in test [10], in test [11] and in test [12] was > 100 µM (inactive) each time. The GI50 in test [13], in [14], in test [15], in test [16], in test [17] and in [18] was > 100 µM (inactive) in each case. In [19], the GI50 is > 100 µM (inactive).
As for `O=NN1C(c2ccccc2)CC(=NO)CC1c1ccccc1` (stereo unspecified), the GI50 in test [1], in test [2], in test [3], in test [4], in test [5] and in [6] was > 100 µM (inactive) throughout. Also, the GI50 in [8] was 43.8 µM (inactive); in test [9] it was > 100 µM (inactive); in test [10] it was > 100 µM (inactive); in test [11] it was > 100 µM (inactive); in test [12], > 100 µM (inactive); in test [13], 6.65 µM (inactive). For the same molecule, the GI50 in test [14] is > 100 µM (inactive); in test [15] it was 74.5 µM (inactive); in test [16], > 100 µM (inactive); in test [17], > 100 µM (inactive); in test [18], > 100 µM (inactive); in test [19], > 100 µM (inactive).
For `Cc1ccc(S(=O)(=O)NC(=O)NC(CCCCN)C(=O)O)cc1` (stereo unspecified), the GI50 in [2], in test [3], in [4], in test [5], in test [6] and in [7] was > 100 µM (inactive) throughout. The GI50 in [8], in test [9], in [10], in [11], in test [12] and in test [13] was > 100 µM (inactive) in each case. The GI50 in test [14], in [15], in test [17], in test [18] and in test [19] was > 100 µM (inactive) each time.
For `CCOP(=O)(C[S+](C)[O-])O[C@@H]1C[C@H](C)CC[C@H]1C(C)C` (stereo partly specified), the GI50 was 4.44 µM (inactive) in test [1]; 5.25 µM (inactive) in test [2]; 2.59 µM (inactive) in test [3]; 11 µM (inactive) in [4]; 2.25 µM (inactive) in [5]; 4.85 µM (inactive) in [6]. The GI50 in [7] is 2.43 µM (inactive); in test [8] it was 3.4 µM (inactive); in test [9] it was 0.434 µM (active); in test [10] it was 1.17 µM (inactive); in [11] it was 3.03 µM (inactive); in test [12], 15 µM (inactive). Besides, the GI50 in [13] was 4.47 µM (inactive); in [14] it was 3.08 µM (inactive); in test [15], 3.48 µM (inactive); in test [16] it was 3.92 µM (inactive); in [17], 4.13 µM (inactive); in [18] it was 2.73 µM (inactive). Also, the GI50 in test [19] is 7.29 µM (inactive).
Turning to `O=C(NC(=S)Nc1ccc2c(c1)Sc1ccccc1O2)c1ccccc1`, the GI50 in test [1] was 35.7 µM (inactive); in test [2], 29.6 µM (inactive); in test [3], 20.4 µM (inactive); in [4], 23.1 µM (inactive); in [5], 20.8 µM (inactive); in [6] it was 45.5 µM (inactive). The GI50 in test [7] was 23 µM (inactive); in test [8] it was 6.27 µM (inactive); in test [9], 50.1 µM (inactive); in test [10], > 100 µM (inactive); in test [11] it was 21.6 µM (inactive); in test [12], 19.8 µM (inactive). The GI50 in [13] was 14.1 µM (inactive); in test [14], 34.2 µM (inactive); in test [15] it was 13.5 µM (inactive); in test [16] it was 53.7 µM (inactive); in test [17], 30.8 µM (inactive); in test [18], 20.3 µM (inactive). For the same molecule, the GI50 in test [19] is 39.9 µM (inactive).

(Values after ChEMBL document CHEMBL1201862, “PubChem BioAssay data set” (2004).)
